From patent publication US20160376659A1, “Breast Cancer Biomarker” (The University of Manchester, priority 2015, published 2016)

Experiments:
[1] = test system: NOTCH4 intracellular domain; test: NOTCH4 intracellular domain Western Blot in MCF-7 endocrine-resistant cells; type: cell-based, human; conditions: endocrine-resistant models; 72 h
Method: MCF7, T47D and ZR-75-1 cell lines were purchased from American Tissue Culture Collection (ATCC) and cultured in DMEM/F-12, GlutaMAX (Gibco) with 10% FBS (Gibco). […] MCF7 resistant cell lines were authenticated by comparative karyotyping to ATCC-derived MCF7. Proteins were extracted with Protein Lysis Buffer (25 mM HEPES, 50 mM NaCl, 30 mM NaPP, 50 mM NaF, 1% Triton-X-100, 10% Glycerol, 5 mM EDTA, Protease Inhibitor cocktail, 1 μM PMSF). Lysates were placed on a rotator for 1 hour at 4° C., then were centrifuged at 10000 g at 4° C. for 10 min, and supernatants were collected. Protein concentrations were assessed using the BCA Protein Assay Kit (Thermo Scientific, 23225). Proteins were separated on a 10% gel (Biorad, 456-1033) by SDS-PAGE at 200V for 1 hour, and then were transferred on polyvinylidene difluoride (PVDF) membranes (BioRad, 170-4157) at 25 V/1,300 mA for 15 min using a Trans Blot Turbo (BioRad, 170-4155). Membranes were blocked in a solution of PBS containing 0.05% Tween-20 and 5% skimmed milk (Marvel) for 1 h at room temperature and primary antibodies were incubated overnight at 4° C. […]

[2] = test system: HBC×22 and HBC×34 tamoxifen-resistant PDXs; test: BCSC activity (MFE, ALDH-positive cells) in tamoxifen-resistant PDXs treated in vivo; parameters: species or system mice; conditions: RO4929097 10 mg/kg/day oral gavage, 14 days
Method: Fulvestrant (kindly provided by Astrazeneca, 200 mg/kg/week) was administered by subcutaneous injection (0.1 ml/dose) on a weekly basis for fourteen days. […] Xenografts were collected in ice cold DMEM media for live cell assays, histological analysis and RNA and protein extraction. Patient-derived xenograft single cell suspension was obtained using a collagenase-hyaluronidase mixture for digestion (Stem Cell Technologies). […] Primary mammospheres were dissociated and replated in secondary mammosphere suspension culture for a further 7-9 days to measure self-renewal. Patient-derived xenograft cells were cultured for 7-10 days. For cell lines, cells were pre-treated in adherence and then cultured for 5 days in mammosphere culture. Mammosphere formation efficiency (MFE) was calculated by dividing the number of mammospheres formed (≧50 μm) by the original number of single cells seeded (500 cells/cm^2 for primary cells and 200 cells/cm^2 for cell lines) and is expressed as fold change normalised to control or as the mean percentage of MFE (Shaw et al., 2012). Dissociated single cells were suspended in Aldefluor assay buffer containing an ALDH substrate, bodipyaminoacetaldehyde (BAAA) at […], and incubated for 45 min at 37° C. […] Data were acquired on a LSR II (BD) flow cytometer and analysed using the BD FACSDiva™ software.

[3] = test system: patient-derived ER+ tumour cells; test: Mammosphere self-renewal of patient-derived ER+ tumour cells; type: cell-based, human; conditions: 10^−6 M 4-hydroxy-tamoxifen vs ethanol control; secondary mammospheres 7-9 days
ER+ BC = test: Tamoxifen trial study (SBII:2a), survival stratified by ALDH1; type: in vivo, human; conditions: 322 pre-menopausal ER+ BC patients; 2 years adjuvant tamoxifen vs no systemic treatment; ALDH1 dichotomised at median

`CC(C)(C(=O)NCC(F)(F)C(F)(F)F)C(=O)N[C@@H]1C(=O)Nc2ccccc2-c2ccccc21` [RO4929097] was tested, and the “levels of the active NOTCH4 intracellular domain” value [1] was “effective in reducing” and the “enrichment of BCSCs” value [2] was “significantly reduced”.

In the case of `CC/C(=C(\c1ccccc1)c1ccc(OCCN(C)C)cc1)c1ccccc1` [tamoxifen, (Z)-2-[4-(1,2-diphenylbut-1-enyl)phenoxy]-N,N-dimethylethanamine], the mammosphere self-renewal [3] is reported as “about two-fold” and the “survival benefit from tamoxifen by epithelial ALDH1 expression” value (ER+ BC) is reported as “improvement in survival (ie. a response to treatment) was only seen in women with low epithelial ALDH1 expression”.
